Measurements as given in PMC7978378, “Discovery of novel dual adenosine A1/A2A receptor antagonists using deep learning, pharmacophore modeling and molecular docking” (PLoS Computational Biology, 2021).

What was measured:
A2AAR [1] = biological target: A2AAR; design: method as in ChEMBL25 [53]; conditions: S1 Table training set; ref ChEMBL25 [53]; read-out: Ki (nM) A2A; cited from earlier work
A1AR [2] = biological target: A1AR; design: method as in ChEMBL25 [53]; conditions: S1 Table training set; ref ChEMBL25 [53]; read-out: Ki (nM) A1; cited from earlier work
A2AAR [3] = biological target: T1, A2AAR (Homo sapiens, UniProt P29274); assay: Radioligand binding assay ([3H]ZM241385); conditions: [3H]ZM241385 0.5 nM, 90 min at 27°C, Cheng-Prusoff; read-out: Binding affinities (pKi) A2A (converted)
A1AR [4] = biological target: T2, A1AR (Homo sapiens, UniProt P30542); assay: biochemical
T2 sequence (P30542 1-326): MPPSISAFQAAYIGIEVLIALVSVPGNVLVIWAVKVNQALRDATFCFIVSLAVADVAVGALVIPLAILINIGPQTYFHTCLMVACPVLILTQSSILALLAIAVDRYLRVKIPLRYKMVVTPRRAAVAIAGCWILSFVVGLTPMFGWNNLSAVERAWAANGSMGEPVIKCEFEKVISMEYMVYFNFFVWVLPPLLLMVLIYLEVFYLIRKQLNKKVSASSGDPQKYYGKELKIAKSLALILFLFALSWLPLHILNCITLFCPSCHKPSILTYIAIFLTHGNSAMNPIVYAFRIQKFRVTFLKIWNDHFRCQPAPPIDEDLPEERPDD

A2AAR [5] = biological target: T1, A2AAR; assay: cAMP functional assay, HEK293-A2A cells; type: cell-based; design: host or cells: HEK293-A2A cells; conditions: antagonism of NECA effect on cAMP, 5.08 × 10^−3 to 100 μM, read-out: cAMP assays (pIC50) A2A (converted)
A1AR [6] = biological target: T2, A1AR; assay: cAMP functional assay, CHO-A1 cells; type: cell-based; design: host or cells: CHO-A1 cells; conditions: antagonism of NECA effect on cAMP, 5.08 × 10^−3 to 100 μM, read-out: cAMP assays (pIC50) A1 (converted)
A1/A2A ARs [7] = assay: cAMP functional assay, summarised over both receptors; conditions: range over A1AR and A2AAR cAMP assays
rodents = conditions: forced swim test and tail suspension test in rodents; cited from earlier work
A1 receptor = conditions: cited from earlier work
A2A receptor = conditions: cited from earlier work
A1/A2A ARs [8] = assay: Radioligand binding assays, summarised over both receptors; design: species or system human; conditions: range over A1AR and A2AAR radioligand binding assays
[9] = design: method as in PMID 20973483; conditions: further studies; cited from earlier work
animal models of PD = tested on: animal models of PD; design: method as in PMID 20973483; conditions: oral administration; cited from earlier work

T1 sequence (P29274 whole entry): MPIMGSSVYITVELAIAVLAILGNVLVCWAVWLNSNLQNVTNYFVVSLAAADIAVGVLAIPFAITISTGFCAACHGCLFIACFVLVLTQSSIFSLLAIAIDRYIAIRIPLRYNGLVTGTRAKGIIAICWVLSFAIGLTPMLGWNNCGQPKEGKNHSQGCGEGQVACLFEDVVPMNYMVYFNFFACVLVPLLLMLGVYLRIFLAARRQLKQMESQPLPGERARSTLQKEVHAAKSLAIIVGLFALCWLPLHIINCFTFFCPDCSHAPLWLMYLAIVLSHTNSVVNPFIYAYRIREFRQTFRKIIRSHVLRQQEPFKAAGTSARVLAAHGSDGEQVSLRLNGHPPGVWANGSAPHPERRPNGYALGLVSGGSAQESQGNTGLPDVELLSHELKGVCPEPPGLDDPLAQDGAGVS

Question: Which Ki (A2AAR [1]) does the source give for `Nc1nc(-c2ccccc2)c2c(n1)-c1cc(N3CCOCC3)ccc1C2=O` [CHEMBL1095822] here?
Answer: 2.9 nM

Question: What about the Ki (A1AR [2]) of the same molecule?
Answer: 32.4 nM

Question: With `OC[C@H]1O[C@@H](n2cnc3c(NC4CCCC4)nc(Cl)nc32)[C@H](O)[C@@H]1O` [CHEMBL284969] as the molecule, how does the Ki (A2AAR [1]) read?
Answer: 17 nM

Question: With `CCn1c(/N=C/c2ccc(F)cc2)c(C#N)sc1=S` [CHEMBL2419148] as the molecule, how does the Ki (A2AAR [1]) read?
Answer: 11 nM

Question: With `Cc1ccccc1-c1nc(N)n(C(=O)Cc2ccccc2)n1` [Compound C7] as the molecule, how does the Ki (A2AAR [3]) read?
Answer: 5750 nM

Question: What about the Ki (A1AR [4]) of the same molecule?
Answer: 1050 nM

Question: And the IC50 (A2AAR [5])?
Answer: > 100000 nM

Question: And the IC50 (A1AR [6])?
Answer: 1910 nM

Question: Which IC50 (A1AR [6]) does the source give for `Cn1c(=O)c2c(-c3cccc(Cl)c3)c(Nc3ccccc3)oc2n(C)c1=O` [Compound C11] here?
Answer: > 100000 nM

Question: What does the source list for `CCn1cnc2c(-c3ccccc3)cn(CC(=O)Nc3cccc(F)c3)c2c1=O` [Compound C17]?
Answer: Ki (A2AAR [3]): > 100000 nM; Ki (A1AR [4]): 525 nM; IC50 (A2AAR [5]): 63100 nM; IC50 (A1AR [6]): 631 nM

Question: What does the source list for `Cc1ccc(-c2nc(N)nc3c2nnn3Cc2ccccc2F)o1` [CHEMBL461857]?
Answer: Ki (A2AAR [1]): 2.1 nM; Ki (A1AR [2]): 19 nM

Question: Which Ki (A1AR [2]) does the source give for `CCCCCc1nc(N)c2nc(-n3nccn3)n(C)c2n1` [CHEMBL196258] here?
Answer: 26.2 nM

Question: With `Cc1cccc(NC(=O)Cc2csc(NC(=O)c3ccc4c(c3)OCO4)n2)c1` [Compound C14] as the molecule, how does the IC50 (A1AR [6]) read?
Answer: > 100000 nM

Question: Which Ki (A2AAR [3]) does the source give for `O=C(c1ccco1)n1nc(-c2ccco2)nc1NCc1ccccc1` [Compound C4] here?
Answer: 19500 nM

Question: What about the Ki (A1AR [4]) of the same molecule?
Answer: 2090 nM

Question: What about the IC50 (A2AAR [5]) of the same molecule?
Answer: > 100000 nM

Question: What about the IC50 (A1AR [6]) of the same molecule?
Answer: 3090 nM

Question: Which results are given for `CC(=O)c1cccc(NC(=O)Nc2cc3c(cc2Oc2ccccc2)n(C)c(=O)n3C)c1` [Compound C15]?
Answer: Ki (A2AAR [3]): > 100000 nM; Ki (A1AR [4]): 2880 nM; IC50 (A2AAR [5]): 7940 nM; IC50 (A1AR [6]): 4470 nM; pIC50 towards A1/A2A ARs (A1/A2A ARs [7]): 5.10–5.35

Question: Which antidepressant activity (rodents) does the source give for `CCn1c(=O)c2c(nc(/C=C/c3ccc(OC)c(OC)c3)n2C)n(CC)c1=O` [KW-6002] here?
Answer: antidepressant activity

Question: Which Ki (A1 receptor) does the source give for `Cc1ccc(-c2cc(-c3cccc(C(=O)N4CCCCC4)c3)nc(N)n2)o1` [4-(5-methylfuran-2-yl)-6-[3-(piperidine-1-carbonyl)phenyl]pyrimidin-2-amine] here?
Answer: 9.54 nM

Question: And the Ki (A2A receptor)?
Answer: 6.34 nM

Question: With `O=C(Cc1csc(NC(=O)c2ccc3c(c2)OCO3)n1)NCCCc1ccccc1` [Compound C13] as the molecule, how does the IC50 (A1AR [6]) read?
Answer: > 100000 nM

Question: Which results are given for `CN(C)CCOc1ccc(-c2nc3c([nH]2)c(=O)n(C)c(=O)n3C)cc1` [CHEMBL3121720]?
Answer: Ki (A2AAR [1]): 0.4 nM; Ki (A1AR [2]): 1.82 nM

Question: With `N#Cc1c(N)nc(SCc2ncc[nH]2)c(C#N)c1-c1ccc(O)cc1` [CHEMBL122622] as the molecule, how does the Ki (A2AAR [1]) read?
Answer: 28 nM

Question: And the Ki (A1AR [2])?
Answer: 2.6 nM

Question: What does the source list for `CCCNc1cc(C)nc2c(C)c(-c3ccc(C)cc3)nn12` [Compound C10]?
Answer: Ki (A2AAR [3]): 8320 nM; Ki (A1AR [4]): 170 nM; IC50 (A2AAR [5]): 10000 nM; IC50 (A1AR [6]): 347 nM

Question: Which IC50 (A1AR [6]) does the source give for `O=C(Cn1c(=O)n(-c2ccccc2)c2ncccc21)NCc1cccc(F)c1` [Compound C18] here?
Answer: > 100000 nM

Question: For `Nc1nc(C#C[C@@H](O)c2ccccc2)nc2c1ncn2[C@@H]1O[C@H](CO)[C@@H](O)[C@H]1O` [CHEMBL262363], which Ki (A2AAR [1]) is on record?
Answer: 1.8 nM

Question: What about the Ki (A1AR [2]) of the same molecule?
Answer: 0.67 nM

Question: With `CCCCNC(=O)CCn1nc(-c2ccccc2)c2ccccc2c1=O` [Compound C1] as the molecule, how does the IC50 (A1AR [6]) read?
Answer: > 100000 nM

Question: Which IC50 (A1AR [6]) does the source give for `O=C(COc1ccccc1)Nc1c(C(=O)Nc2cccc(F)c2)oc2ccccc12` [Compound C2] here?
Answer: > 100000 nM

Question: For `CC(=O)Nc1cc(-c2cccc(N3CCCC3)n2)nc(-n2nc(C)cc2C)n1` [CHEMBL485765], which Ki (A2AAR [1]) is on record?
Answer: 0.26 nM

Question: And the Ki (A1AR [2])?
Answer: 7.2 nM

Question: With `O=C(NC1CC1)[C@H]1S[C@@H](n2cnc3c(NCc4cccc(I)c4)ncnc32)[C@H](O)[C@@H]1O` [CHEMBL596014] as the molecule, how does the Ki (A2AAR [1]) read?
Answer: 15.2 nM

Question: Which IC50 (A1AR [6]) does the source give for `CCCn1ccc2c(OCC(=O)Nc3ccc(OCC)cc3)cccc2c1=O` [Compound C16] here?
Answer: > 100000 nM

Question: What does the source list for `Nc1nc(-c2ccccc2Cl)nn1C(=O)c1cccc(Cl)c1` [Compound C9]?
Answer: Ki (A2AAR [3]): 69.2 nM; Ki (A1AR [4]): 32.4 nM; IC50 (A2AAR [5]): 490 nM; IC50 (A1AR [6]): 191 nM; pKi for A1/A2A ARs (A1/A2A ARs [8]): 7.16–7.49; pIC50 towards A1/A2A ARs (A1/A2A ARs [7]): 6.31–6.78

Question: For `COc1ccc(NC(=O)Nc2nc3ccc(Cl)cc3c3nc(-c4ccco4)nn23)cc1` [CHEMBL144979], which Ki (A2AAR [1]) is on record?
Answer: 9.4 nM

Question: And the Ki (A1AR [2])?
Answer: 7.6 nM

Question: For `Cc1ccc(-c2c(C(=O)NCc3ccncc3)nc3ccccn23)cc1` [Compound C19], which Ki (A2AAR [3]) is on record?
Answer: 11700 nM

Question: What about the Ki (A1AR [4]) of the same molecule?
Answer: 10700 nM

Question: And the IC50 (A2AAR [5])?
Answer: > 100000 nM

Question: And the IC50 (A1AR [6])?
Answer: 52500 nM

Question: For `O=C(CCCn1c2ccccc2c2cn[nH]c(=O)c21)NCc1cccs1` [Compound C3], which IC50 (A1AR [6]) is on record?
Answer: > 100000 nM

Question: With `Nc1nc(-c2ccccc2)c2c(n1)-c1cc(CN3CCCC3)ccc1C2=O` [2-amino-4-phenyl-8-(pyrrolidin-1-ylmethyl)-5H-indeno[1,2-d]pyrimidin-5-one] as the molecule, how does the genotoxicity [9] read?
Answer: genotoxic

Question: What about the “activity in animal models of PD” value (animal models of PD) of the same molecule?
Answer: excellent activity

Question: With `CC(=O)Nc1cc(-n2cccn2)nc(-c2ccco2)n1` [CHEMBL401321] as the molecule, how does the Ki (A2AAR [1]) read?
Answer: 0.6 nM

Question: What about the Ki (A1AR [2]) of the same molecule?
Answer: 9.45 nM
